Test results: US11549123B2, “Plant EPSP synthases and methods of use” (PIONEER HI-BRED INTERNATIONAL, INC., priority 2015, dated 2023)
Substitutions are numbered along the chain they refer to.

How the values were obtained:
Assay type in all cases: biochemical
[1] = biological target: T1, Zea mays EPSPS, native, SEQ ID NO:2 (Zea mays, UniProt O24566); assay: Substrate saturation analysis with glyphosate (Example 8, global fit to competitive inhibition), native maize
T1 construct: E. coli BL21(DE3), Ni-NTA purified
T1 sequence (O24566 with tags, fused parts or gaps): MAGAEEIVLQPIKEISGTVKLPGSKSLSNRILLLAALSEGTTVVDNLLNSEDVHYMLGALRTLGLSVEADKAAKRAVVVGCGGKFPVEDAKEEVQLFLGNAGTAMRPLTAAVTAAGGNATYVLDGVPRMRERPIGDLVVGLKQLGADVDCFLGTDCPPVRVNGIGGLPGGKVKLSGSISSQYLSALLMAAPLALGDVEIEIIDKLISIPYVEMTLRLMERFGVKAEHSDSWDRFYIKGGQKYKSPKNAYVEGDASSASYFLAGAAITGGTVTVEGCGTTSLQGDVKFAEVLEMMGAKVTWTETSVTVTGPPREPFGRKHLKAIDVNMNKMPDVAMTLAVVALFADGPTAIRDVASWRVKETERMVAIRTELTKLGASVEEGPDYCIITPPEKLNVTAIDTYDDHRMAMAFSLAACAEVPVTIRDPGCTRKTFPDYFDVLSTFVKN
Source text: Generally, (kcat/KM)*KI is obtained by performing substrate saturation analysis in the absence and presence of inhibitor. However, that analysis takes longer. […] To validate the method, (kcat/KM)*KI was quantified using both methods—traditional (saturation) and the instant method (rapid), for variants of maize 5-enolpyruvylshikimate-3-phosphate synthase (EPSPS) and its competitive inhibitor, glyphosate.
The amino acid sequence of mature Zea mays EPSPS was obtained from GenBank entry CAA44974.1 (SEQ ID NO:2). A nucleotide sequence was created to add an N-terminal methionine and to optimize codon usage for expression in E. coli. The synthesized gene was cloned into an expression vector that provides a T7 promoter driving expression of the protein and a 10× N-terminal histidine tag. Variants selected for this study include native maize EPSPS and variants generated by a gene shuffling cascade described herein. The proteins were expressed in E. coli BL21(DE3) and purified by Ni-NTA resin (Qiagen). Protein concentration was determined by absorbance at 280 nm using an extinction coefficient of 0.676 OD/mg/m L. The proteins were normalized to 0.5 mg/mL for assay.
EPSPS activity was determined by quantifying the phosphate generated by the reaction. Release of phosphate was coupled to reaction with MESG, catalyzed by purine-nucleoside phosphorylase, using standard methods. The absorbance change that occurs was monitored continuously at 360 nm, where the extinction is 11,200 M-1 cm-1, with a Spectramax plate reader (Molecular Devices). […] The enzyme concentration was adjusted so as to generate sufficient signal without exceeding the limit for linear initial reaction rates. The same procedure was repeated with two or three concentrations of glyphosate and the data were processed by non-linear regression analysis with GraphPad Prism (graphpad.com) and globally fitted to the Michaelis-Menten equation for competitive inhibition.
To validate that the rapid method yields an accurate estimation of (kcat/KM)*KI, the results were compared with those obtained by full substrate saturation analysis. […]

[2] = test system: Zea mays EPSPS variant G-W at positions 103-107 (EPSPS-TGPW; T103G P107W); assay: EPSPS substrate saturation kinetics, maize variant 103G 107W (EPSPS-TGPW)
Experimental: (§1) EPSPS activity was determined by quantifying the phosphate generated from the EPSPS reaction. Release of inorganic phosphate was coupled to reaction with 2-amino-6-mercapto-7-methylpurine ribonucleoside, catalyzed by purine-nucleoside phosphorylase (M R Webb, Proc. Natl. Acad. Sci. 89:4884-4887, 1992). The absorbance change that occurs was monitored at 360 nm, where the extinction is 11,200 M^−1 cm^−1, with a Spectramax plate reader (Molecular Devices). To determine kinetic parameters, the varied substrate was present at seven concentrations (the eighth being the blank, containing no substrate) ranging from 4 to 400 uM and the unvaried substrate present at saturation. Six microliters of 50-fold concentrated stock solutions of the varied substrate were placed in the wells of the 96-well assay plate and reactions were started with the addition of a mixture containing 25 mM Hepes, pH 7, 100 mM KCl, 0.3 mM 2-amino-6-mercapto-7-methylpurine ribonucleosde, 1 uM (1 unit/ml) purine-nucleoside phosphorylase (Sigma N8264) and 200 uM of the non-varied substrate. Reactions were monitored with a Spectramax plate reader. The Michaelis-Menten kinetics protocol of the Spectramax software was customized for the substrate concentrations used. The software returns values of KM and Vmax using the Lineweaver-Burke transformation of the Michaelis-Menten equation. To determine kcat, Vmax (uM/min) was divided by the enzyme concentration (uM). […] KI was then calculated from the following form of the Michaelis-Menten equation for competitive inhibition: KI=KM[I]/(KM app−KM) KM approximates the dissociation constant of the enzyme-substrate complex while kcat is the rate of conversion of substrate to product when the substrate concentration is saturating. kcat/KM is a widely accepted parameter for catalytic efficiency when substrate concentration is low (˜KM). […] The parameter kcat/KM×KI is used to quantify both catalytic efficiency and insensitivity and thus the overall fitness of the enzyme.
NNK-enabled saturation mutagenesis was performed at positions 103 and 107 in the maize EPSPS sequence, and transformed BL21 DE3 cells were screened as described above.

[3] = biological target: T2, Zea mays EPSPS variant L-A at positions 103-107 (Zea mays, UniProt O24566, P106A/T102L); assay: EPSPS substrate saturation kinetics, maize variant 103L 107A
T2 sequence (O24566 with tags, fused parts or gaps T102L/P106A): T1 sequence (O24566 with tags, fused parts or gaps) with T103L, P107A
Experimental: as §1, with “enzyme. […]” for “enzyme.”

[4] = substrate saturation, Zm native

Compound	kcat [1, 4]	catalytic efficiency (kcat/KM) relative to native maize EPSPS ([2]; PEP)	higher KM for PEP ([2]; relative to native maize EPSPS)	lower kcat ([2]; relative to native maize EPSPS)	kcat ([3]; PEP varied)	Ki [1]	(kcat/KM)*KI [1, 4]	less sensitive to glyphosate ([2]; relative to native maize EPSPS)	Ki [3]	(kcat/KM)*KI ([3]; PEP as substrate, glyphosate as inhibitor)
C=C(OP(=O)(O)O)C(=O)O [PEP, phosphoenolpyruvate]	1036 min⁻¹	5%	5 fold	4 fold	125	–	–	–	–	–
O=C(O)CNCP(=O)(O)O [glyphosate, N-phosphonomethylglycine]	–	–	–	–	–	130 nM	12	about 3,000 fold	463 µM	1143
